Assay results taken from patent US20230069590A1, “CONCENTRATED SODIUM VALPROATE FOR RAPID DELIVERY” (priority 2020, published 2023).
“And” between values parts separate entries of the source, which are not always exact repeats. Equal values may be shown once. Read-outs that look alike come from different tables or passages of the source.

Assays:
[1] = Pharmacokinetic Analysis (TABLE 1 in Example 1); format: in vivo, swine
[2] = tested on: non-lethal TBI and hemorrhagic shock; details: 150 mg/kg; cited from earlier work
[3] = tested on: polytrauma, hemorrhage and TBI; assay: Survival after IO or IV VPA in polytrauma, hemorrhage and TBI (Example 2); format: in vivo, swine; details: 150 mg/kg over 3 hours
Description: Animals underwent placement of femoral venous and arterial lines, a pulmonary artery catheter, and open cystostomy for invasive monitoring, hemorrhage and resuscitation. […] The abdomen was then packed, and animal flipped prone in preparation for TBI and hemorrhage. A 12 mm depth TBI was inflicted using a controlled cortical impact device, and the animal was simultaneously hemorrhaged 40% of its estimated blood volume over 20 minutes. At the completion of hemorrhage, the animal was left unresuscitated and in shock for 1 hour to simulate medic response time.
At the end of the shock phase, in order to simulate available resuscitative fluids available in a field care setting, all animals were resuscitated with normal saline via the femoral venous catheter with a standardized volume that was three times the hemorrhaged volume delivered over 1 hour. Animals were randomized to receive either a VPA administered IO (TO group) or administered IV (IV group) or to a control group. […] Placement of the needle was confirmed by aspiration of marrow and subsequent flush of 10 mL normal saline without extravasation. […] Animals were then monitored for another 4 hours to the predetermined end point. […]

[4] = tested on: lethal model of polytrauma, HS and TBI; assay: Serum AST and CPK in polytrauma, HS and TBI model (Example 1); format: in vivo, swine; details: for Serum aspartate aminotransferase (AST): 3 hours post-treatment
Description: (§1) Treatment groups are outlined in Table 1. […] In order to simulate prolonged field care (PFC) by a combat medic, three times the hemorrhage volume of NS was delivered centrally through femoral vein catheter over 1 hour using the Masterflex pump. […] To simulate delayed evacuation to definitive care after PFC, autologous packed red blood cells (pRBCs) were transfused 3 hours after the completion of shock phase at a rate of 25 mL/hr. Animals were then monitored for an additional 4 hours to simulate time in a critical care unit, after which animals were euthanized with Euthasol (sodium pentobarbital 100 mg/kg, Virbec, Fort Worth, Tex.) if the animal survived to the end of the experiment. Laboratory parameters were monitored, and electrolyte abnormalities (e.g. hyperkalemia and hypoglycemia) were corrected as needed.

lethal models of trauma = details: 300-450 mg/kg; cited from earlier work
[5] = Plasma VPA levels and pharmacokinetics (Example 1); format: in vivo, swine; details: for Clearance / Vd: pig, in vivo, iv; for Vd: read-out: Volume of distribution (Vd); for concentration at 5 h / concentration at 3 h: swine, plasma, intravenous, plasma VPA level; for concentration at 5 h: 5 hours after VPA infusion start
Excerpt: A separate group of sham animals underwent cannulation and line placement without infliction of polytrauma, hemorrhage or TBI for use in subsequent pharmacokinetic (PK) analysis.

[6] = Further experiments: infusion of 150 mg/kg over 1 hour, hemodynamic effects; format: in vivo; details: 150 mg/kg delivered over 1 hour
[7] = Serum VPA after IO versus IV infusion (Example 2); format: in vivo; details: swine, 150 mg/kg over 3 hours
Description: At the end of the shock phase, in order to simulate available resuscitative fluids available in a field care setting, all animals were resuscitated with normal saline via the femoral venous catheter with a standardized volume that was three times the hemorrhaged volume delivered over 1 hour. […] Placement of the needle was confirmed by aspiration of marrow and subsequent flush of 10 mL normal saline without extravasation. […] To simulate a delayed transfer to definitive care, 3 hours after the start of normal saline resuscitation, animals were transfused autologous packed red blood cells that were hemorrhaged earlier in the experiment. Animals were then monitored for another 4 hours to the predetermined end point. […] Arterial blood gases were drawn from the femoral arterial line serially throughout the experiment.
GraphPad Prism v8 was used to analyze data (GraphPad Software, San Diego, Calif.).

[8] = healthy human subjects, 140 mg/kg given over one hour; cited from earlier work
[9] = tested on: lethal model of polytrauma, HS and TBI; assay: Survival in lethal swine model of polytrauma, hemorrhage and TBI (Example 1); format: in vivo
Excerpt: (§2) Bilateral 5-Fr 11-cm arterial catheters and an 8-Fr 11-cm central venous catheter (Super Sheath, Boston Scientific Corporation, Marlborough, Mass.) were placed by femoral cutdown for arterial pressure monitoring, controlled arterial hemorrhage and central venous normal saline (NS; 0.9% sodium chloride solution) administration. An open cystostomy tube was placed for urine output monitoring. The right external jugular vein was then accessed percutaneously under ultrasound guidance, and a pulmonary artery catheter was placed for monitoring of pulmonary artery pressure and cardiac output.
A 5 cm segment of the left rectus muscle was exposed and crushed using a Kelly clamp to create a soft tissue injury. Femur fracture and liver injury were performed as previously described (Ref. 20; incorporated by reference in its entirety). The mid-femur was exposed and fractured with a 22-gauge captive bolt gun (Ramset Mastershot, Glendale Heights, Ill.) fired point-blank on the femur. A reproducible grade V liver laceration was created with a liver crunch device placed 1 cm lateral to the porta and 7 cm posterior on the dome of the liver. After laceration the liver was allowed to bleed freely for 30 seconds. […] Laparotomy pads were weighed at the end of the experiment to confirm a consistent liver injury (500±50 mL hemorrhage volume).
(§3) The animal was then flipped prone in preparation for TBI and additional hemorrhage. TBI was made by controlled cortical impact (Ref. 21; incorporated by reference in its entirety). A skin flap was raised on the anterior skull to expose the bregma, followed by a 21 mm burr hole on the right side next to the coronal and sagittal sutures to expose the dura. The computer controlled cortical impactor (University of Michigan Innovation Center, Ann Arbor, Mich.) was fired to produce a 10-mm depth injury. A 5-mm burr hole was made on the left for placement of the intracranial pressure (ICP) probe.
Concurrent with TBI, 40% estimated total blood volume was withdrawn over 20 minutes using a Masterflex pump (Cole-Palmer, Vernon Hills, Ill.). The initial 20% blood volume was removed over the first 7 minutes, followed by an additional 20% blood volume at a slower rate over the subsequent 13 minutes. […] Mean arterial pressure (MAP) was maintained between 30-35 mmHg by adjusting the inhaled isoflurane, pausing hemorrhage if MAP persisted <30 mm Hg and giving 50-100 mL fluid boluses of NS.
After completion of hemorrhage, a one-hour shock phase began. This one hour was designed to simulate medic response time from the initial injury. During the shock phase, MAP was again maintained between 30-35 mmHg in order to standardize the effect of hypotension on the injured brain.
as §1

[10] = tested on: lethal model of polytrauma, HS and TBI; assay: Hemodynamics (MAP, adverse hemodynamic effects) in polytrauma, HS and TBI model (Example 1)
Excerpt: as §2, §1

[11] = tested on: TBI by controlled cortical impact; assay: Brain lesion size, TTC staining, controlled for time (Example 1); format: in vivo, swine; details: VPA 150 (150 mg/kg over 3 h); lesion volume divided by time from injury
Excerpt: as §3

histone acetylation = details: 150 mg/kg, at the end of a 3-hour VPA infusion; cited from earlier work
[12] = group mean of 5 VPA-treated animals
[13] = individual VPA-treated animals 1-5, dose and regimen not given
[14] = 100 mg/kg, VPA 100 (injured, 100 mg/kg over 3 h)
[15] = 150 mg/kg, VPA 150 (injured, 150 mg/kg over 3 h)

CCCC(CCC)C(=O)O [VPA, valproic acid]
Area Under Curve [1, 12]: 616 µg·h/mL | Maximum Concentration [1, 12]: 145 mg/L | Area Under Curve [1, 13]: 431.4 µg·h/mL and 827.6 µg·h/mL and 635.2 µg·h/mL and 521.1 µg·h/mL and 663.7 µg·h/mL | Clearance [1, 13]: 17.4 L/h and 7.43 L/h and 9.44 L/h and 13.2 L/h and 10.9 L/h | Half-life [1, 13]: 1.85 h and 1.65 h and 1.58 h | Maximum Concentration [1, 13]: 98.12 mg/L and 199.3 mg/L and 142.8 mg/L and 124.5 mg/L | Clearance ([1]; pig, in vivo, 150 mg/kg, group mean of 5 VPA-treated animals, read-out: Clearance (converted)): 11.2 L/h | Half-life ([1]; pig, in vivo, 150 mg/kg, group mean of 5 VPA-treated animals, read-out: Half-life (converted)): 1.7 h | Half-life ([1]; pig, in vivo, 150 mg/kg, individual VPA-treated animals 1-5, dose and regimen not given, read-out: Half-life (converted)): 1.81 h | brain lesion size and neurologic recovery [2]: attenuating brain lesion size and improving neurologic recovery | survival to the end of the experiment ([3]; IO group): 100% | survival to the end of the experiment ([3]; IV group): 100% | creatine phosphokinase (CPK), group mean ([4]; VPA 100 (100 mg/kg over 3 h)): 1581±321 | Serum aspartate aminotransferase (AST) ([4]; VPA 100 (100 mg/kg over 3 h)): 95±29 | creatine phosphokinase (CPK), group mean ([4]; VPA 100 over 2 h): 927±233 | Serum aspartate aminotransferase (AST) ([4]; VPA 100 over 2 h): 101±22 | creatine phosphokinase (CPK), group mean ([4]; VPA 150 (150 mg/kg over 3 h)): 2428±1314 | Serum aspartate aminotransferase (AST) ([4]; VPA 150 (150 mg/kg over 3 h)): 177±95 | survival (lethal models of trauma): survival benefit | Clearance ([5]; 100 mg/kg, 100 mg/kg over 2 h (injured)): 91.7 mL/min | Clearance [5, 14]: 68.3 mL/min | Vd [5, 14]: 16.1 ± 3.3 L | Vd ([5]; 150 mg/kg, Sham VPA (uninjured, 150 mg/kg over 3 h)): 12.1 ± 6 L | Clearance [5, 15]: 102 mL/min | Vd [5, 15]: 24.2 ± 3.8 L | concentration at 5 h ([5]; 100 mg/kg, VPA 100 over 2 h (injured)): 74 µg/mL | concentration at 3 h ([5]; 100 mg/kg, VPA 100 over 2 h (injured), three hours after start of infusion): 115 µg/mL | concentration at 3 h ([5]; 150 mg/kg, Sham VPA (uninjured, 150 mg/kg over 3 h), three hours after start of infusion (end of infusion)): 291 µg/mL | concentration at 5 h ([5]; 150 mg/kg, VPA 150 (injured)): 114 µg/mL | concentration at 3 h ([5]; 150 mg/kg, VPA 150 (injured, 150 mg/kg over 3 h), three hours after start of infusion (end of infusion)): 175 µg/mL | adverse hemodynamic effects [6]: does not cause adverse hemodynamic effects | AUC ([7]; IV group): 294 to 356 µg·h/mL | AUC ([7]; other: intraosseous (IO needle in the left humeral head), IO group): 301 to 470 µg·h/mL | peak plasma level [8]: 1271 µg/mL | survival ([9]; 100 mg/kg over 2 hours (faster rate of infusion)): improved survival | survival compared to NS resuscitation ([9]; 100 mg/kg over 3 hours): did not | survival compared to NS resuscitation ([9]; 150 mg/kg over 3 hours): significantly improved survival | survival ([9]; VPA 100: 100 mg/kg IV over 3 hours with NS resuscitation): 0% | survival ([9]; VPA 100 over 2 h: 100 mg/kg IV over 2 hours with NS resuscitation): 67% | survival ([9]; VPA 150: 150 mg/kg IV over 3 hours with NS resuscitation, survival to end of experiment): 83% | adverse hemodynamic effects ([10]; 100 mg/kg over 2 hours): without causing any adverse hemodynamic effects | adverse hemodynamic effects ([10]; 150 mg/kg over 3 hours): without causing any adverse hemodynamic effects | mean arterial pressure (MAP) after the treatment ([10]; VPA 150 (150 mg/kg over 3 hours) versus other groups): tended to have a higher MAP | brain lesion size controlled for time [11]: 4.1 mm^3/min | histone acetylation (histone acetylation): significant increase in histone acetylation
